According to patent publication US6525059B1, “Substituted pyrazoles as p38 kinase inhibitors” (G. D. Searle & Company, priority 1998, dated 2003):
pIC50: −log10 of the molar value.

Each compound was assayed against T1, human p38 kinase alpha (Homo sapiens, UniProt Q16539) (assay: p38 kinase in vitro assay, phosphorylation of biotinylated PHAS-I with gamma 32P-ATP). Conditions: @ 1.0 uM.
T1 construct: The coding region of the human p38a cDNA was obtained by PCR-amplification from RNA isolated from the human monocyte cell line THP.1; GST (N); made in house; host or cells: E. coli DH10B
T1 sequence (Q16539 whole entry): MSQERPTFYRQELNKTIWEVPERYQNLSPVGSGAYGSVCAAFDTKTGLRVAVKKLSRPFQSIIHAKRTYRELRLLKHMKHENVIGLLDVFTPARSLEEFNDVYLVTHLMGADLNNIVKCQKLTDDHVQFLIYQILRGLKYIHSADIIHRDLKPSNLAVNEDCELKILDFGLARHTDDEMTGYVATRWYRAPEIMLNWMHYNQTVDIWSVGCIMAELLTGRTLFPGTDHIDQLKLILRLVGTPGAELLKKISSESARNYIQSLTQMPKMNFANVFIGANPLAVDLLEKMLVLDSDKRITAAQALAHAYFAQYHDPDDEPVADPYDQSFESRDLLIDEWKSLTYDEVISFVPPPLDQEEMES
Format: biochemical
Description: The ability of compounds to inhibit human p38 kinase alpha was evaluated using two in vitro assay methods. In the first method activated human p38 kinase alpha phosphorylates a biotinylated substrate, PHAS-I (phosphorylated heat and acid stable protein-insulin inducible), in the presence of gamma ^32P-ATP (^32P-ATP). PHAS-I was biotinylated prior to the assay and provides a means of capturing the substrate which is phosphorylated during the assay. p38 Kinase was activated by MKK6. Compounds were tested in 10 fold serial dilutions over the range of 100 μM to 0.001 μM using 1% DMSO. Each concentration of inhibitor was tested in triplicate.
All reactions were carried out in 96 well polypropylene plates. Each reaction well contained 25 mM HEPES pH 7.5, 10 mM magnesium acetate and 50 μM unlabeled ATP. […] The reaction proceeded either for one hour or overnight at 30° C.
Following incubation, 20 μl of reaction mixture was transferred to a high capacity streptavidin coated filter plate (SAM-streptavidin-matrix, Promega) prewetted with phosphate buffered saline. […] Filter plates were air dried and 20 μl of scintillant was added. The plates were sealed and counted.

Point of comparison: O=C(NCc1[nH]nc(-c2ccc(F)cc2)c1-c1ccncc1)[C@@H]1C[C@@H]1c1ccccc1 [Example B-0002], “P38 alpha kinase % inhib @ conc.” value 71.1% @ 1.0 uM. Against it:
- N#Cc1ccc(C(=O)NCc2[nH]nc(-c3ccc(F)cc3)c2-c2ccncc2)cc1 [Example B-0001] — lower, 53.0% @ 1.0 uM
- COC(=O)C(=O)NCc1[nH]nc(-c2ccc(F)cc2)c1-c1ccncc1 [Example B-0025] — higher, 89.0% @ 1.0 uM
- O=C(NCc1[nH]nc(-c2ccc(F)cc2)c1-c1ccncc1)c1ccc(OC(F)(F)F)cc1 [Example B-0028] — lower, 69.0% @ 1.0 uM
- O=C(NCc1[nH]nc(-c2ccc(F)cc2)c1-c1ccncc1)c1cccc2ccccc12 [Example B-0037] — higher, 91.0% @ 1.0 uM
- O=C(CCC1CC=CC1)NCc1[nH]nc(-c2ccc(F)cc2)c1-c1ccncc1 [Example B-0038] — lower, 71.0% @ 1.0 uM
- O=C(NCc1[nH]nc(-c2ccc(F)cc2)c1-c1ccncc1)C(F)(F)C(F)(F)C(F)(F)F [Example B-0046] — higher, 96.0% @ 1.0 uM
- CCC(C(=O)NCc1[nH]nc(-c2ccc(F)cc2)c1-c1ccncc1)c1ccccc1 (stereo not drawn) [Example B-0048] — higher, 94.0% @ 1.0 uM
- O=C(NCc1[nH]nc(-c2ccc(F)cc2)c1-c1ccncc1)c1cc(C(F)(F)F)ccc1F [Example B-0050] — higher, 73% @ 1.0 uM
- O=C(NCc1[nH]nc(-c2ccc(F)cc2)c1-c1ccncc1)C1CCCN1C(=O)C(F)(F)F (stereo not drawn) [Example B-0094] — higher, 96% @ 1.0 uM

Same assay, conditions: @ 1.0 uM; read-out: P38 alpha kinase % inhib @ conc.

Point of comparison: O=C(NCc1[nH]nc(-c2ccc(F)cc2)c1-c1ccncc1)c1cccc(F)c1 [Example B-0069], inhibition at 1 µM 96%. Against it:
- Cc1cc(C)c(C(=O)NCc2[nH]nc(-c3ccc(F)cc3)c2-c2ccncc2)c(C)c1 [Example B-0049] — lower, 88%
- O=C(NCc1[nH]nc(-c2ccc(F)cc2)c1-c1ccncc1)c1cccnc1Cl [Example B-0053] — lower, 95%
- O=C(NCc1[nH]nc(-c2ccc(F)cc2)c1-c1ccncc1)c1ccno1 [Example B-0054] — lower, 90%
- CCOc1ccc2ccccc2c1C(=O)NCc1[nH]nc(-c2ccc(F)cc2)c1-c1ccncc1 [Example B-0059] — lower, 83%
- O=C(NCc1[nH]nc(-c2ccc(F)cc2)c1-c1ccncc1)c1ccc(C(F)(F)F)cc1F [Example B-0061] — lower, 62%
- O=C(NCc1[nH]nc(-c2ccc(F)cc2)c1-c1ccncc1)c1ccc(F)cc1C(F)(F)F [Example B-0062] — lower, 94%
- O=C(NCc1[nH]nc(-c2ccc(F)cc2)c1-c1ccncc1)c1ccccc1 [Example B-0063] — the same, 96%
- Cc1cccc(C(=O)NCc2[nH]nc(-c3ccc(F)cc3)c2-c2ccncc2)c1 [Example B-0067] — lower, 91%
- COc1cccc(OC)c1C(=O)NCc1[nH]nc(-c2ccc(F)cc2)c1-c1ccncc1 [Example B-0070] — lower, 92%
- COc1cc(OC)cc(C(=O)NCc2[nH]nc(-c3ccc(F)cc3)c2-c2ccncc2)c1 [Example B-0072] — lower, 77%
- O=C(NCc1[nH]nc(-c2ccc(F)cc2)c1-c1ccncc1)c1ccccc1F [Example B-0074] — lower, 92%
- COc1cccc(C(=O)NCc2[nH]nc(-c3ccc(F)cc3)c2-c2ccncc2)c1 [Example B-0075] — lower, 91%
- COC(=O)c1ccc(C(=O)NCc2[nH]nc(-c3ccc(F)cc3)c2-c2ccncc2)cc1 [Example B-0082] — lower, 47%
- CC(C)[C@H]1CC[C@@H](C)C[C@@H]1OCC(=O)NCc1[nH]nc(-c2ccc(F)cc2)c1-c1ccncc1 [Example B-0084] — lower, 56%
- COc1ccc(C(=O)NCc2[nH]nc(-c3ccc(F)cc3)c2-c2ccncc2)c(OC)c1 [Example B-0086] — lower, 91%
- COC(=O)CC(=O)NCc1[nH]nc(-c2ccc(F)cc2)c1-c1ccncc1 [Example B-0091] — the same, 96%
- O=C(OCc1ccccc1C(=O)NCc1[nH]nc(-c2ccc(F)cc2)c1-c1ccncc1)c1ccccc1 [Example B-0092] — higher, 97%
- O=C(NCc1[nH]nc(-c2ccc(F)cc2)c1-c1ccncc1)c1cc(F)ccc1F [Example B-0095] — higher, 98%
- Cc1cc(C)c(S(=O)(=O)NCc2[nH]nc(-c3ccc(F)cc3)c2-c2ccncc2)c(C)c1 [Example B-0109] — lower, 45%
- O=[N+]([O-])c1ccccc1CS(=O)(=O)NCc1[nH]nc(-c2ccc(F)cc2)c1-c1ccncc1 [Example B-0112] — higher, 97%
- O=[N+]([O-])c1ccccc1S(=O)(=O)NCc1[nH]nc(-c2ccc(F)cc2)c1-c1ccncc1 [Example B-0113] — lower, 75%
- O=S(=O)(NCc1[nH]nc(-c2ccc(F)cc2)c1-c1ccncc1)c1cccs1 [Example B-0121] — lower, 79%
- O=S(=O)(NCc1[nH]nc(-c2ccc(F)cc2)c1-c1ccncc1)c1ccc(Cl)cc1Cl [Example B-0126] — lower, 66%
- N#Cc1ccccc1S(=O)(=O)NCc1[nH]nc(-c2ccc(F)cc2)c1-c1ccncc1 [Example B-0127] — lower, 82%
- COc1ccc(OC)c(S(=O)(=O)NCc2[nH]nc(-c3ccc(F)cc3)c2-c2ccncc2)c1 [Example B-0130] — lower, 69%
- COc1ccc(S(=O)(=O)NCc2[nH]nc(-c3ccc(F)cc3)c2-c2ccncc2)cc1OC [Example B-0131] — lower, 43%
- O=S(=O)(NCc1[nH]nc(-c2ccc(F)cc2)c1-c1ccncc1)c1ccccc1F [Example B-0133] — lower, 51%
- O=S(=O)(NCc1[nH]nc(-c2ccc(F)cc2)c1-c1ccncc1)c1ccc(Cl)c(Cl)c1 [Example B-0135] — lower, 78%
- COc1cc(C)c(S(=O)(=O)NCc2[nH]nc(-c3ccc(F)cc3)c2-c2ccncc2)c(C)c1C [Example B-0137] — lower, 41%
- O=S(=O)(NCc1[nH]nc(-c2ccc(F)cc2)c1-c1ccncc1)c1ccc(Cl)s1 [Example B-0144] — lower, 86%
- O=C(NCc1ccccc1)NCc1[nH]nc(-c2ccc(F)cc2)c1-c1ccncc1 [Example B-0151] — lower, 43%

Same assay, conditions: @ 10.0 uM; read-out: P38 alpha kinase % inhib @ conc.

Point of comparison: CCCCN(CCCC)c1cccc2c(S(=O)(=O)NCc3[nH]nc(-c4ccc(F)cc4)c3-c3ccncc3)cccc12 [Example B-0139], inhibition at 10 µM 54%. Against it:
- CC(=O)Nc1nc(C)c(S(=O)(=O)NCc2[nH]nc(-c3ccc(F)cc3)c2-c2ccncc2)s1 [Example B-0097] — higher, 72%
- CCCCCCCCCCS(=O)(=O)NCc1[nH]nc(-c2ccc(F)cc2)c1-c1ccncc1 [Example B-0125] — higher, 70%
- O=C(NCc1[nH]nc(-c2ccc(F)cc2)c1-c1ccncc1)Nc1ccc(Oc2ccccc2)cc1 [Example B-0155] — lower, 40%

Same assay, conditions: activated human p38 kinase alpha, PHAS-I substrate, 50 μM unlabeled ATP; read-out: p38 kinase IC50

Point of comparison: Cc1n[nH]c(-c2ccccc2O)c1-c1ccncc1 [Example A-16], pIC50 5.42. Against it:
- COc1cc(F)cc(-c2[nH]nc(C)c2-c2ccncc2)c1 [Example A-25, 4-{5-(3-Fluoro-5-methoxyphenyl)-3-methyl-3-methyl-1H-pyrazol-4-yl}pyridine] — within 0.2 log units, 5.59

Same assay, conditions: p38α in vitro, PHAS-I assay procedure; read-out: p38^1 IC50

Point of comparison: Fc1ccc(-c2n[nH]cc2-c2ccnc(NC3CCNCC3)c2)cc1 [Example A-277, 4-[3-(4-fluorophenyl)-1H-pyrazol-4-yl]-N-4-piperadinyl-2-pyridinamine], pIC50 7.59. Against it:
- Fc1ccc(-c2n[nH]c(NCCN3CCOCC3)c2-c2ccncc2)cc1 [Example A-218, N-[5-(4-fluorophenyl)-4-(4-pyridinyl)-1H-pyrazol-3-yl]-4-morpholineethanamine] — 0.23 log units lower, 7.36
- Fc1ccc(CNc2cc(-c3cn(CCN4CCOCC4)nc3-c3ccc(F)cc3)ccn2)cc1 [Example A-276, N-[(4-fluorophenyl)methyl]-4-[3(or 5)-(4-fluorophenyl)-1-[[2-(4-morpholinyl)ethyl]-1H-pyrazol-4-yl]-2-pyridinamine] — 0.84 log units lower, 6.75
- OCCNc1cc(-c2c[nH]nc2-c2ccc(F)cc2)ccn1 [Example A-280] — 0.72 log units lower, 6.87
- Cn1cc(-c2ccnc(NCCO)c2)c(-c2ccc(F)cc2)n1 [Example A-281, 2-[[4-[3-(4-fluorophenyl)-1-methyl-1H-pyrazol-4-yl]-2-pyridinyl]amino]ethanol] — 0.31 log units lower, 7.28
- OCCn1cc(-c2ccnc(NCc3ccc(F)cc3)c2)c(-c2ccc(F)cc2)n1 [Example A-283, 3 (or 5)-(4-fluorophenyl)-4-[2-[[(4-fluorophenyl)methyl]amino]-4-pyridinyl]-1H-pyrazole-1-ethanol] — not separable, > 7.00
- Fc1ccc(CNc2cc(-c3cn(CCN4CCOCC4)nc3-c3ccc(F)cc3)ccn2)cc1 [Example A-285, N-[(4-fluorophenyl)methyl]-4-[3-(4-fluorophenyl)-1-[2-(4-morpholinyl)ethyl]-1H-pyrazol-4-yl]-2-pyridinamine] — not separable, > 7.00
- OCCn1cc(-c2ccnc(NCc3ccc(F)cc3)c2)c(-c2ccc(F)cc2)n1 [Example A-289, 3-(4-fluorophenyl)-4-[2-[[(4-fluorophenyl)methyl]amino]-4-pyridinyl]-1H-pyrazole-1-ethanol] — not separable, > 7.00
- O=C(O)CNc1[nH]nc(-c2ccc(F)cc2)c1-c1ccncc1 [Example A-293, N-[5-(4-fluorophenyl)-4-(4-pyridinyl)-1H-pyrazol-3-yl]glycine] — 1.45 log units lower, 6.14
